Measured values reported in ChEMBL document CHEMBL1201862, “PubChem BioAssay data set” (2004).
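A five-concentration, 48-hour dose response in 96-well plates underlies each endpoint, interpolated linearly between surrounding concentrations. GI50 marks 50% less growth.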 Activity calls are given as the source filed them. No stated cut-off is given here; in the data, active = GI50 up to about 1.1 µM and inactive = higher.

Columns and labels:
Assay in all cases: NCI tumour cell line growth inhibition, 48 h
786-0 = tested on: 786-0
A498 = tested on: A498
A549 = tested on: A549
ACHN = tested on: ACHN
BT-549 = tested on: BT-549
CAKI-1 = tested on: CAKI-1
CCRF-CEM = tested on: CCRF-CEM
COLO 205 = tested on: COLO 205
DU-145 = tested on: DU-145
EKVX = tested on: EKVX
HCC 2998 = tested on: HCC 2998
HCT-116 = tested on: HCT-116
HCT-15 = tested on: HCT-15
HL-60 = tested on: HL-60
HOP-62 = tested on: HOP-62
HOP-92 = tested on: HOP-92
HT-29 = tested on: HT-29
Hs-578T = tested on: Hs-578T
IGROV-1 = tested on: IGROV-1
K562 = tested on: K562
KM12 = tested on: KM12
LOX IMVI = tested on: LOX IMVI
M14 = tested on: M14
MCF7 = tested on: MCF7
MDA-MB-231 = tested on: MDA-MB-231
MDA-MB-435 = tested on: MDA-MB-435
MOLT-4 = tested on: MOLT-4
NCI-H226 = tested on: NCI-H226
NCI-H23 = tested on: NCI-H23
NCI-H460 = tested on: NCI-H460
NCI/ADR-RES = tested on: NCI/ADR-RES
OVCAR-3 = tested on: OVCAR-3
OVCAR-4 = tested on: OVCAR-4
OVCAR-5 = tested on: OVCAR-5
OVCAR-8 = tested on: OVCAR-8
PC-3 = tested on: PC-3
RPMI-8226 = tested on: RPMI-8226
RXF 393 = tested on: RXF 393
SF-268 = tested on: SF-268
SF-295 = tested on: SF-295
SF-539 = tested on: SF-539
SK-MEL-28 = tested on: SK-MEL-28
SK-MEL-5 = tested on: SK-MEL-5
SK-OV-3 = tested on: SK-OV-3
SN12C = tested on: SN12C
SNB-19 = tested on: SNB-19
SNB-75 = tested on: SNB-75
SR = tested on: SR
SW-620 = tested on: SW-620
T47D = tested on: T47D
TK-10 = tested on: TK-10
U-251 = tested on: U-251
UACC-257 = tested on: UACC-257
UACC-62 = tested on: UACC-62
UO-31 = tested on: UO-31
MDA-N = tested on: MDA-N
SK-MEL-2 = tested on: SK-MEL-2

c1csc(-c2cscc2-c2cccs2)c1
GI50 (786-0): 43.6 µM (inactive) | GI50 (A498): > 100 µM (inactive) | GI50 (A549): 39.4 µM (inactive) | GI50 (ACHN): > 100 µM (inactive) | GI50 (BT-549): 63.4 µM (inactive) | GI50 (CAKI-1): > 100 µM (inactive) | GI50 (CCRF-CEM): 44.1 µM (inactive) | GI50 (COLO 205): 50.8 µM (inactive) | GI50 (DU-145): 1.31 µM (inactive) | GI50 (EKVX): 58.3 µM (inactive) | GI50 (HCC 2998): 22.9 µM (inactive) | GI50 (HCT-116): 29.8 µM (inactive) | GI50 (HCT-15): 35.8 µM | GI50 (HL-60): 30.3 µM (inactive) | GI50 (HOP-62): 27.6 µM (inactive) | GI50 (HOP-92): 78.5 µM (inactive) | GI50 (HT-29): 91.4 µM (inactive) | GI50 (Hs-578T): 54.8 µM (inactive) | GI50 (IGROV-1): 67.8 µM (inactive) | GI50 (K562): 37.3 µM (inactive) | GI50 (KM12): 22.3 µM (inactive) | GI50 (LOX IMVI): 43.2 µM (inactive) | GI50 (M14): 27.7 µM (inactive) | GI50 (MCF7): 20.2 µM (inactive) | GI50 (MDA-MB-231): > 100 µM (inactive) | GI50 (MDA-MB-435): 33.4 µM (inactive) | GI50 (MOLT-4): 34.5 µM (inactive) | GI50 (NCI-H226): 27.1 µM (inactive) | GI50 (NCI-H23): 28.2 µM (inactive) | GI50 (NCI-H460): > 100 µM (inactive) | GI50 (NCI/ADR-RES): 42.9 µM (inactive) | GI50 (OVCAR-3): 17.4 µM (inactive) | GI50 (OVCAR-4): 46 µM (inactive) | GI50 (OVCAR-5): 24.1 µM (inactive) | GI50 (OVCAR-8): 57.4 µM (inactive) | GI50 (PC-3): 5.38 µM (inactive) | GI50 (RPMI-8226): 43.6 µM (inactive) | GI50 (RXF 393): 27.6 µM (inactive) | GI50 (SF-268): > 100 µM (inactive) | GI50 (SF-295): 32.9 µM (inactive) | GI50 (SF-539): 20.3 µM (inactive) | GI50 (SK-MEL-28): > 100 µM (inactive) | GI50 (SK-MEL-5): 46.8 µM (inactive) | GI50 (SK-OV-3): 32.9 µM (inactive) | GI50 (SN12C): > 100 µM (inactive) | GI50 (SNB-19): > 100 µM (inactive) | GI50 (SNB-75): 69.2 µM (inactive) | GI50 (SR): 27.7 µM (inactive) | GI50 (SW-620): 48.3 µM (inactive) | GI50 (T47D): > 100 µM (inactive) | GI50 (TK-10): 91 µM (inactive) | GI50 (U-251): > 100 µM (inactive) | GI50 (UACC-257): 95.1 µM (inactive) | GI50 (UACC-62): 72.3 µM (inactive) | GI50 (UO-31): 58.2 µM (inactive)

N#CC(NNC(=O)c1c(Cl)c(Cl)c(Cl)c(Cl)c1-c1nc2cc(C(=O)c3ccccc3)ccc2[nH]1)c1cccc(Oc2ccccc2)c1 (configuration not stated)
GI50 (786-0): 22 µM (inactive) | GI50 (A498): 20.8 µM (inactive) | GI50 (A549): 30.9 µM (inactive) | GI50 (ACHN): 25.6 µM (inactive) | GI50 (BT-549): 19.1 µM (inactive) | GI50 (CAKI-1): 35.2 µM (inactive) | GI50 (CCRF-CEM): 15.6 µM (inactive) | GI50 (COLO 205): 20.8 µM (inactive) | GI50 (DU-145): 28.3 µM (inactive) | GI50 (EKVX): 15.8 µM (inactive) | GI50 (HCT-116): 29.6 µM (inactive) | GI50 (HCT-15): 18.4 µM | GI50 (HL-60): 28.3 µM (inactive) | GI50 (HOP-62): 25.8 µM (inactive) | GI50 (HOP-92): 17.5 µM (inactive) | GI50 (HT-29): 27.4 µM (inactive) | GI50 (IGROV-1): 26.7 µM (inactive) | GI50 (K562): 27.5 µM (inactive) | GI50 (KM12): 36.6 µM (inactive) | GI50 (LOX IMVI): 37.8 µM (inactive) | GI50 (M14): 25.6 µM (inactive) | GI50 (MCF7): 20.3 µM (inactive) | GI50 (MDA-MB-231): 19 µM (inactive) | GI50 (MDA-MB-435): 16.6 µM (inactive) | GI50 (MDA-N): 15.4 µM (inactive) | GI50 (MOLT-4): 24.3 µM (inactive) | GI50 (NCI-H226): 21.3 µM (inactive) | GI50 (NCI-H23): 26.4 µM (inactive) | GI50 (NCI/ADR-RES): 19 µM (inactive) | GI50 (OVCAR-3): 28.1 µM (inactive) | GI50 (OVCAR-4): 18.6 µM (inactive) | GI50 (OVCAR-5): 28.7 µM (inactive) | GI50 (OVCAR-8): 41.6 µM (inactive) | GI50 (PC-3): 18.8 µM (inactive) | GI50 (RPMI-8226): 34.8 µM (inactive) | GI50 (RXF 393): 16.9 µM (inactive) | GI50 (SF-295): 28.5 µM (inactive) | GI50 (SF-539): 20.7 µM (inactive) | GI50 (SK-MEL-28): 24.3 µM (inactive) | GI50 (SK-MEL-2): 20.5 µM (inactive) | GI50 (SK-MEL-5): 15.4 µM (inactive) | GI50 (SK-OV-3): 33.8 µM (inactive) | GI50 (SN12C): 23.9 µM (inactive) | GI50 (SNB-19): 26.6 µM (inactive) | GI50 (SNB-75): 23.7 µM (inactive) | GI50 (SR): 20.6 µM (inactive) | GI50 (SW-620): 27.7 µM (inactive) | GI50 (T47D): 18.9 µM (inactive) | GI50 (TK-10): 31.3 µM (inactive) | GI50 (U-251): 23.4 µM (inactive) | GI50 (UACC-257): 38.1 µM (inactive) | GI50 (UO-31): 30.8 µM (inactive)
